Measured values taken from PubChem BioAssay AID1919016 (Molecular Pharmacology Branch, DTP, NCI, 2023).

Test system: NCI-H196 complex spheroid growth, percent test/control
Test: Anticancer human tumor NCI-H196 cell line growth inhibition [AhR];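 note: seven days of drug exposure starting three days after plating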;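 for viability, T/C: 100% = DMSO vehicle control wells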
Details: for IC50: curve of first compound; for viability, T/C: stronger effect = lower value
How it was run: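 Complex tumor spheroids co-cultured with HUVEC and human MSC stroma; AhR antagonists tested in combination with standard-of-care and investigational agents. Top concentration at or near clinical Cmax (else 10 microM), half-log dilutions; growth expressed as percent test/control.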

`O=C(C=Cn1cnc(-c2cc(C(F)(F)F)cc(C(F)(F)F)c2)n1)NNc1cnccn1` + Cc1cncc(-c2nc(NCCc3c[nH]c4ccccc34)c3ncn(C(C)C)c3n2)c1 showed an IC50 (second compound 0.1 µM) of 44.3 nM, an IC50 (second compound 0.316 µM) of 34 nM and an IC50 (second compound 1 µM) of 42 nM. The IC50 (second compound 3.16 µM) was 40.2 nM, the IC50 (second compound 10 µM) was 38.7 nM and the viability, T/C (second compound 0.1 µM, first compound 0.00949 µM) was 75.3%. The viability, T/C (second compound 0.1 µM, first compound 0.03 µM) was 65%, the viability, T/C (second compound 0.1 µM, first compound 0.0949 µM) was 20.6% and the viability, T/C (second compound 0.1 µM, first compound 0.3 µM) was 8.92%. For the same compound, the viability, T/C (second compound 0.1 µM, first compound 0.949 µM) was 8.7%, the viability, T/C (second compound 0.1 µM, first compound 3 µM) was 5.72% and the viability, T/C (second compound 0.316 µM, first compound 0.00949 µM) was 73.5%. For the same compound, the viability, T/C (second compound 0.316 µM, first compound 0.03 µM) was 52.7%, the viability, T/C (second compound 0.316 µM, first compound 0.0949 µM) was 25.1% and the viability, T/C (second compound 0.316 µM, first compound 0.3 µM) was 9.13%. For the same compound, the viability, T/C (second compound 0.316 µM, first compound 0.949 µM) was 9.31%, the viability, T/C (second compound 0.316 µM, first compound 3 µM) was 8.45% and the viability, T/C (second compound 1 µM, first compound 0.00949 µM) was 71%. It also gave a viability, T/C (second compound 1 µM, first compound 0.03 µM) of 59.2%, a viability, T/C (second compound 1 µM, first compound 0.0949 µM) of 27.9% and a viability, T/C (second compound 1 µM, first compound 0.3 µM) of 13%. The viability, T/C (second compound 1 µM, first compound 0.949 µM) was 8.4%, the viability, T/C (second compound 1 µM, first compound 3 µM) was 7.77% and the viability, T/C (second compound 3.16 µM, first compound 0.00949 µM) was 80%. It also gave a viability, T/C (second compound 3.16 µM, first compound 0.03 µM) of 59.4%, a viability, T/C (second compound 3.16 µM, first compound 0.0949 µM) of 22.4% and a viability, T/C (second compound 3.16 µM, first compound 0.3 µM) of 10.5%. The viability, T/C (second compound 3.16 µM, first compound 0.949 µM) was 8.06%, the viability, T/C (second compound 3.16 µM, first compound 3 µM) was 8.49% and the viability, T/C (second compound 10 µM, first compound 0.00949 µM) was 65.2%. The viability, T/C (second compound 10 µM, first compound 0.03 µM) was 62.8%, the viability, T/C (second compound 10 µM, first compound 0.0949 µM) was 4.24% and the viability, T/C (second compound 10 µM, first compound 0.3 µM) was 2.39%. It also gave a viability, T/C (second compound 10 µM, first compound 0.949 µM) of 8.19% and a viability, T/C (second compound 10 µM, first compound 3 µM) of 5.29%.

In the case of `CC[C@@]1(O)C(=O)OCc2c1cc1n(c2=O)Cc2cc3c(CN(C)C)c(O)ccc3nc2-1` + Cc1cncc(-c2nc(NCCc3c[nH]c4ccccc34)c3ncn(C(C)C)c3n2)c1, the IC50 (second compound 0.1 µM) is reported as greater than 100 nM, the IC50 (second compound 0.316 µM) is reported as greater than 100 nM and the IC50 (second compound 1 µM) is reported as greater than 100 nM. It also gave an IC50 (second compound 3.16 µM) greater than 100 nM, an IC50 (second compound 10 µM) greater than 100 nM and a viability, T/C (second compound 0.1 µM, first compound 0.000316 µM) of 105%. It also gave a viability, T/C (second compound 0.1 µM, first compound 0.001 µM) of 95.5%, a viability, T/C (second compound 0.1 µM, first compound 0.00316 µM) of 83% and a viability, T/C (second compound 0.1 µM, first compound 0.01 µM) of 88.8%. It also gave a viability, T/C (second compound 0.1 µM, first compound 0.0316 µM) of 96.8%, a viability, T/C (second compound 0.1 µM, first compound 0.1 µM) of 105% and a viability, T/C (second compound 0.316 µM, first compound 0.000316 µM) of 101%. For the same compound, the viability, T/C (second compound 0.316 µM, first compound 0.001 µM) was 100%, the viability, T/C (second compound 0.316 µM, first compound 0.00316 µM) was 98.8% and the viability, T/C (second compound 0.316 µM, first compound 0.01 µM) was 95.5%. The viability, T/C (second compound 0.316 µM, first compound 0.0316 µM) was 94.7%, the viability, T/C (second compound 0.316 µM, first compound 0.1 µM) was 99.2% and the viability, T/C (second compound 1 µM, first compound 0.000316 µM) was 108%. The viability, T/C (second compound 1 µM, first compound 0.001 µM) was 103%, the viability, T/C (second compound 1 µM, first compound 0.00316 µM) was 91% and the viability, T/C (second compound 1 µM, first compound 0.01 µM) was 92.3%. It also gave a viability, T/C (second compound 1 µM, first compound 0.0316 µM) of 101%, a viability, T/C (second compound 1 µM, first compound 0.1 µM) of 89.8% and a viability, T/C (second compound 3.16 µM, first compound 0.000316 µM) of 104%. It also gave a viability, T/C (second compound 3.16 µM, first compound 0.001 µM) of 101%, a viability, T/C (second compound 3.16 µM, first compound 0.00316 µM) of 96.7% and a viability, T/C (second compound 3.16 µM, first compound 0.01 µM) of 88.8%. For the same compound, the viability, T/C (second compound 3.16 µM, first compound 0.0316 µM) was 104%, the viability, T/C (second compound 3.16 µM, first compound 0.1 µM) was 95.2% and the viability, T/C (second compound 10 µM, first compound 0.000316 µM) was 82.8%. The viability, T/C (second compound 10 µM, first compound 0.001 µM) was 97.7%, the viability, T/C (second compound 10 µM, first compound 0.00316 µM) was 95.7% and the viability, T/C (second compound 10 µM, first compound 0.01 µM) was 74.1%. The viability, T/C (second compound 10 µM, first compound 0.0316 µM) was 83.9% and the viability, T/C (second compound 10 µM, first compound 0.1 µM) was 77.2%.
